{"source": "patent US9302999B2", "about": "“Substituted triazoles as herbicides” (E. I. DU PONT DE NEMOURS AND COMPANY, priority 2012, dated 2016)", "type_in_all_cases": "in vivo", "key": {"[1]": {"system": "cocklebur (common cocklebur, Xanthium strumarium)", "experiment": "Test F pre-/postemergence: cocklebur", "conditions": "Preemergence", "summary_of_the_method": "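Visual response scores, 0 meaning no effect and 100 complete control, were assigned against untreated controls 14 to 21 days after treatment. Test chemicals in a surfactant-containing non-phytotoxic solvent were applied preemergence to seeded silt loam soil or postemergence to 2–18 cm plants in peat-based medium.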"}, "[2]": {"system": "barnyardgrass (Echinochloa crus-galli)", "experiment": "Test F pre-/postemergence: barnyardgrass", "conditions": "Preemergence", "from_the_text": "Seeds of plant species selected from corn (Zea mays), soybean (Glycine max), velvetleaf (Abutilon theophrasti), lambsquarters (Chenopodium album), poinsettia, wild (wild poinsettia, Euphorbia heterophylla), pigweed, palmer (palmer pigweed, Amaranthus palmeri), waterhemp (common waterhemp, Amaranthus rudis), surinam grass (Brachiaria decumbens), crabgrass, Brazil (Brazilian crabgrass, Digitaria horizontalis), panicum, fall (fall panicum Panicum dichotomiflorum), crabgrass, large (large crabgrass, Digitaria sanguinalis), foxtail, giant (giant foxtail, Setaria faberii), foxtail, green (green foxtail Setaria viridis), goosegrass (Eleusine indica), ragweed (common ragweed, Ambrosia elatior), barnyardgrass (Echinochloa crus-galli), sandbur (southern sandbur, Cenchrus echinatus), arrowleaf sida (Sida rhombifolia), ryegrass, Italian (Italian ryegrass, Lolium multiflorum), dayflower, VA (Virginia (VA) dayflower, Commelina virginica), field bindweed (Convolvulus arvensis), cocklebur (common cocklebur, Xanthium strumarium), morningglory (Ipomoea coccinea), nightshade (eastern black nightshade, Solanum ptycanthum), kochia (Kochia scoparia), nutsedge, yellow (yellow nutsedge, Cyperus esculentus), johnsongrass (Sorghum halepense), smartweed (ladysthumb smartweed, Polygonum persicaria), and beggarticks (hairy beggarticks, Bidens pilosa), were planted into a silt loam soil and treated preemergence with test chemicals formulated in a non-phytotoxic solvent mixture which included a surfactant. At the same time, plants selected from these crop and weed species and also pigweed (Amaranthus retroflexus), waterhemp_RES1 (ALS/Triazine resistant common waterhemp, Amaranthus rudis) and waterhemp_RES2 (ALS/HPPD resistant common waterhemp, Amaranthus rudis) were planted in pots containing a planting medium comprising spaghnum peat moss, vermiculite, wetting agent and starter nutrients treated with postemergence applications of some of the test chemicals formulated in the same manner. Plants ranged in height from 2 to 18 cm for postemergence treatments (1- to 4-leaf stage).\nTreated plants and controls were maintained in a greenhouse for 14 to 21 days, after which time all species were compared to controls and visually evaluated. Plant response ratings, summarized in Table E, are based on a scale of 0 to 100 where 0 is no effect and 100 is complete control. A dash (-) response means no test result."}, "[3]": {"system": "barnyardgrass (Echinochloa crus-galli)", "experiment": "Test C pre-/postemergence: barnyardgrass", "conditions": "Preemergence, 250 g ai/ha; scale 0 to 100, 0 no effect, 100 complete control", "from_the_text": "Seeds of plant species selected from blackgrass (Alopecurus myosuroides), bromegrass, downy (downy bromegrass, Bromus tectorum), foxtail, green (green foxtail, Setaria viridis), ryegrass, Italian (Italian ryegrass, Lolium multiflorum), winter wheat (Triticum aestivum), wild oat (Avena fatua), galium (catchweed bedstraw, Galium aparine), bermudagrass (Cynodon dactylon), surinam grass (Brachiaria decumbens), cocklebur (common cocklebur, Xanthium strumarium), corn (Zea mays), large crabgrass (Digitaria sanguinalis), woolly cupgrass (Eriochloa villosa), foxtail, giant (giant foxtail, Setaria faberii), goosegrass (Eleusine indica), johnsongrass (Sorghum halepense), kochia (Kochia scoparia), lambsquarters (Chenopodium album), morningglory (Ipomoea coccinea), nightshade (eastern black nightshade, Solanum ptycanthum), nutsedge, yellow (yellow nutsedge, Cyperus esculentus), pigweed (Amaranthus retroflexus), ragweed (common ragweed, Ambrosia elation), soybean (Glycine max), common (oilseed) sunflower (Helianthus annuus), Russian thistle (Salsola kali) and velvetleaf (Abutilon theophrasti) were planted into a blend of loam soil and sand and treated preemergence with test chemicals formulated in a non-phytotoxic solvent mixture which included a surfactant.\nAt the same time, plants selected from these crop and weed species and also barley (winter barley, Hordeum vulgare), canarygrass (Phalaris minor), chickweed (common chickweed, Stellaria media) windgrass (Apera spica-venti) and deadnettle (henbit deadnettle, Lamium amplexicaule) were planted in pots containing Redi-Earth® planting medium (Scotts Company, 14111 Scottslawn Road, Marysville, Ohio 43041) comprising spaghnum peat moss, vermiculite, wetting agent and starter nutrients and treated with postemergence applications of test chemicals formulated in the same manner. Plants ranged in height from 2 to 18 cm (1- to 4-leaf stage) for postemergence treatments.\nTreated plants and controls were maintained in a greenhouse for 13 to 15 days, after which time all species were compared to controls and visually evaluated. Plant response ratings, summarized in Table C, are based on a scale of 0 to 100 where 0 is no effect and 100 is complete control. A dash (-) response means no test result."}, "[4]": {"conditions": "16 g ai/ha, scale 0 to 100 (0 no effect, 100 complete control)"}}, "data": [{"smiles": "CCCc1nn(-c2ccc(F)cc2)nc1Cc1ccnc(C(F)(F)F)c1", "note": "[Compound 153]", "values": [{"measurement": "Plant response rating, Cocklebur", "setting": "[1]; [4]", "value": 0}, {"measurement": "Plant response rating, Cocklebur", "setting": "[1]; 62 g ai/ha, scale 0 to 100", "value": 0}, {"measurement": "Plant response rating, Barnyardgrass", "setting": "[2]; [4]", "value": 5}, {"measurement": "Plant response rating, Barnyardgrass", "setting": "[2]; 31 g ai/ha, scale 0 to 100 (0 no effect, 100 complete control)", "value": 10}, {"measurement": "Plant response rating, Barnyardgrass", "setting": "[2]; 62 g ai/ha, scale 0 to 100", "value": 10}, {"measurement": "Plant response rating, Barnyardgrass", "setting": "[2]; 125 g ai/ha, scale 0 to 100", "value": 75}, {"measurement": "Plant response rating, Barnyardgrass", "setting": "[2]; 250 g ai/ha, scale 0 to 100", "value": 100}, {"measurement": "Plant response rating, Barnyardgrass", "setting": "[3]", "value": 100}]}]}
